Measured values: ChEMBL document CHEMBL5380816, “Inclusion of Nitrofurantoin into the Realm of Cancer Chemotherapy via Biology-Oriented Synthesis and Drug Repurposing” (J Med Chem, 2023)
Calls of active or inactive are those of the source. The calls are words filed in the database; no cut-off is given here.

Columns and labels:
[1] = Selectivity index, ratio of IC50 for human WI-38 cells to IC50 for human HeLa cells; assay type: toxicity; settings: WI-38 cells versus HeLa cells, read-out: Ratio IC50
[2] = Cytotoxicity in human WI-38 cells assessed as reduction in cell viability incubated for 72 hrs by MTT assay; assay type: toxicity, cell-based
MCF7 [3] = test: Anticancer activity against human MCF7 cells incubated for 72 hrs by MTT assay; assay type: functional, cell-based; settings: MCF7, 72 h
Caco-2 [4] = test: Anticancer activity against human Caco-2 cells incubated for 72 hrs by MTT assay; assay type: functional, cell-based; settings: Caco-2, 72 h
HepG2 [5] = test: Anticancer activity against human HepG2 cells incubated for 72 hrs by MTT assay; assay type: functional, cell-based; settings: HepG2, 72 h
[6] = Selectivity index, ratio of IC50 for human WI-38 cells to IC50 for human HepG2 cells; assay type: toxicity; settings: WI-38 cells versus HepG2 cells, read-out: Ratio IC50
MCF7 [7] = test: Potency index, ratio of 5-fluorouracil IC50 to test compound IC50 for antiproliferative activity against human MCF7 cells; assay type: functional
HepG2 [8] = test: Potency index, ratio of 5-fluorouracil IC50 to test compound IC50 for antiproliferative activity against human HepG2 cells; assay type: functional
[9] = Selectivity index, ratio of IC50 for human WI-38 cells to IC50 for human MCF7 cells; assay type: toxicity; settings: WI-38 cells versus MCF7 cells, read-out: Ratio IC50
[10] = Cytotoxicity in human WI-38 cells assessed as safe dose incubated for 72 hrs by MTT assay; assay type: toxicity, cell-based; settings: read-out: EC100
HeLa [11] = test: Anticancer activity against human HeLa cells incubated for 72 hrs by MTT assay; assay type: functional, cell-based
[12] = Selectivity index, ratio of IC50 for human WI-38 cells to IC50 for human Caco-2 cells
MCF7 [13] = test: cells; settings: Homo sapiens, MCF7, 72 h, read-out: Activity
Description: Induction of apoptosis in human MCF7 cells assessed as viable cells incubated at 0.027 uM for 72 hrs by annexin V-FITC based propidium iodide dual staining assay (Rvb = 99.9%)

HeLa [14] = test: Induction of apoptosis in human HeLa cells assessed as ratio of gene expression activity in pro apoptotic Bax to anti apoptotic Bcl-2; assay type: functional
[15] = target: Tumour suppressor p53/oncoprotein Mdm2 (Homo sapiens, UniProt P04637+Q00987); test: Inhibition of human recombinant MDM2/p53 interaction measured after 10 mins by ELISA method; assay type: protein assay
Tumour suppressor p53/oncoprotein Mdm2, sequence (P04637 whole entry): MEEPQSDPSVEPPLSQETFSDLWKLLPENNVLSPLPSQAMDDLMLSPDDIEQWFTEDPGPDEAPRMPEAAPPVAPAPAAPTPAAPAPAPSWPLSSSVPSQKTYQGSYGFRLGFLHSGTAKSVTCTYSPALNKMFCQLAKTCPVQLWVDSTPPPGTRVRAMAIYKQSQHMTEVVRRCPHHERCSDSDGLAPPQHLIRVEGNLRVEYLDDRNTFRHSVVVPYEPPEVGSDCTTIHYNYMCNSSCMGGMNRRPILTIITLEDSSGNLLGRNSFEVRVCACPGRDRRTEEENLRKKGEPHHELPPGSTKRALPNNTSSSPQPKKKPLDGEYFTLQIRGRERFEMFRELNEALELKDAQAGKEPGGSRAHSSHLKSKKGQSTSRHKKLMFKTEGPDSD
Tumour suppressor p53/oncoprotein Mdm2, sequence (Q00987 whole entry): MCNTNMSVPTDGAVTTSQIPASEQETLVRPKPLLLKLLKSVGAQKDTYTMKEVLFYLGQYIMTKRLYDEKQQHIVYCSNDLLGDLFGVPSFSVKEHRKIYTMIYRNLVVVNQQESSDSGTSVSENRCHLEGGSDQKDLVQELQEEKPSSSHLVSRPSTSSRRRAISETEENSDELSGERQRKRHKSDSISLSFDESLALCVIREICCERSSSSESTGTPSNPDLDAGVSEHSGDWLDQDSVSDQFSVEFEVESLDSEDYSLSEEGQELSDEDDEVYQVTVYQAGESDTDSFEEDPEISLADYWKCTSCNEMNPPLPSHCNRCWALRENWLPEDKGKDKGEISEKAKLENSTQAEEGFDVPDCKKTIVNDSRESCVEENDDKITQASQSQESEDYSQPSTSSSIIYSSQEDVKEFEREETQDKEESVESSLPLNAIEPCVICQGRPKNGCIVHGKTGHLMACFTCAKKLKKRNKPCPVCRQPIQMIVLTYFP

Caco-2 [16] = test: Induction of apoptosis in human Caco-2 cells assessed as ratio of gene expression activity in pro apoptotic Bax to anti apoptotic Bcl-2; assay type: functional
HepG2 [17] = test: Induction of apoptosis in human HepG2 cells assessed as ratio of gene expression activity in pro apoptotic Bax to anti apoptotic Bcl-2; assay type: functional
HepG2 [18] = test: cells; settings: Homo sapiens, HepG2, 72 h, read-out: Activity
Description: Induction of apoptosis in human HepG2 cells assessed as viable cells incubated at 0.027 uM for 72 hrs by annexin V-FITC based propidium iodide dual staining assay (Rvb = 97.27%)

MCF7 [19] = test: Induction of apoptosis in human MCF7 cells assessed as ratio of gene expression activity in pro apoptotic Bax to anti apoptotic Bcl-2; assay type: functional
HeLa [20] = test: cells; settings: Homo sapiens, 72 h, read-out: Activity
Description: Induction of apoptosis in human HeLa cells assessed as viable cells incubated at 0.027 uM for 72 hrs by annexin V-FITC based propidium iodide dual staining assay (Rvb = 97.23%)

Caco-2 [21] = test: cells; settings: Homo sapiens, Caco-2, 72 h, read-out: Activity
MCF7 [22] = test: Induction of apoptosis in human MCF7 cells assessed as pro-oxidant effect by measuring free radical generation measured at 0.097 uM after 72 hrs; assay type: functional, cell-based
Caco-2 [23] = test: Induction of apoptosis in human Caco-2 cells assessed as pro-oxidant effect by measuring free radical generation measured at 0.097 uM after 72 hrs; assay type: functional, cell-based
dsDNA [24] = test: Induction of damage in dsDNA (unknown origin) assessed as DNA disruption by measuring damage constant at 100 uM incubated for 2.5 hrs by EvaGreen based fluorescence plate reader analysis; assay type: nucleic-acid assay
dsDNA [25] = test: Induction of damage in dsDNA (unknown origin) assessed as DNA disruption by measuring fluorescence intensity at 100 uM incubated for 2.5 hrs by EvaGreen based fluorescence plate reader analysis; assay type: nucleic-acid assay
dsDNA [26] = test: Induction of damage in dsDNA (unknown origin) assessed as DNA disruption by measuring amplitude at 100 uM incubated for 2.5 hrs by EvaGreen based fluorescence plate reader analysis; assay type: nucleic-acid assay

Row | Compound | selectivity ratio [1] | IC50 at 72 h [2] | IC50 (MCF7 [3]) | IC50 (Caco-2 [4]) | IC50 (HepG2 [5]) | selectivity ratio [6] | Ratio IC50 (MCF7 [7]) | Ratio IC50 (HepG2 [8]) | selectivity ratio [9] | MNTC at 72 h [10] | IC50 (HeLa [11]) | Ratio IC50 [12] | other results
1 | O=C1CN(/N=C/c2ccc([N+](=O)[O-])o2)C(=O)N1Cc1ccc([N+](=O)[O-])cc1 | 1.51 | 181 nM | 103 nM | 103 nM | 127 nM | 1.42 | 1.2 | 1.2 | 1.77 | 9 nM | 121 nM | 1.75 | 
2 | O=C1CN(/N=C/c2ccc([N+](=O)[O-])o2)C(=O)N1 [NITROFURANTOIN] | 0.98 | 162 nM |  | 115 nM |  |  |  |  |  | 27 nM | 166 nM | 1.41 | viability at 0.027 µM (MCF7 [13]): 98.8%; Ratio (HeLa [14]): 1.42; IC50 [15]: 1580 nM; Ratio (Caco-2 [16]): 1.385; Ratio (HepG2 [17]): 1.002; viability at 0.027 µM (HepG2 [18]): 98.7%; Ratio (MCF7 [19]): 0.958; viability at 0.027 µM (HeLa [20]): 84.8%; viability at 0.027 µM (Caco-2 [21]): 85%
3 | O=C1CN(/N=C/c2ccc([N+](=O)[O-])o2)C(=O)N1Cc1cn(-c2ccc(Cl)cc2)nn1 | 1.92 | 150 nM | 85 nM | 77 nM | 400 nM | 0.376 | 1.2 |  | 1.77 | 29 nM | 78 nM | 1.95 | Activity (MCF7 [22]): Active; Activity (Caco-2 [23]): Active
4 | Cc1ccc(C(=O)CN2C(=O)CN(/N=C/c3ccc([N+](=O)[O-])o3)C2=O)cc1 | 1.58 | 180 nM | 255 nM | 140 nM | 287 nM | 0.628 |  |  | 0.706 | 33 nM | 115 nM | 1.28 | 
5 | O=C(CN1C(=O)CN(/N=C/c2ccc([N+](=O)[O-])o2)C1=O)c1ccc(Br)cc1 | 2.47 | 240 nM | 105 nM | 78 nM | 289 nM | 0.83 | 1.2 |  | 2.31 | 66 nM | 97 nM | 3.05 | 
6 | O=C1CN(/N=C/c2ccc([N+](=O)[O-])o2)C(=O)N1Cc1cn(-c2ccccc2)nn1 | 2.61 | 220 nM | 128 nM | 144 nM | 104 nM | 2.11 | 1.2 | 1.2 | 1.74 | 36 nM | 84 nM | 1.53 | 
7 | COc1cccc2c1C(=O)c1c(O)c3c(c(O)c1C2=O)C[C@@](O)(C(=O)CO)C[C@@H]3O[C@H]1C[C@H](N)[C@H](O)[C@H](C)O1 |  |  |  |  |  |  |  |  |  |  |  |  | Activity (dsDNA [24]): 15.2; Activity (dsDNA [25]): 65.4; Activity (dsDNA [26]): 218
8 | COc1ccc(C(=O)CN2C(=O)CN(/N=C/c3ccc([N+](=O)[O-])o3)C2=O)cc1 | 1.61 | 140 nM | 198 nM | 105 nM | 149 nM | 0.948 | 1.2 | 1.2 | 0.706 | 26 nM | 87 nM | 1.37 | 
9 | O=C1CN(/N=C/c2ccc([N+](=O)[O-])o2)C(=O)N1Cc1cn(-c2ccc(S(=O)(=O)Nc3nccs3)cc2)nn1 | 0.813 | 87.9 nM | 120 nM | 87 nM | 71 nM | 1.23 | 1.2 | 1.2 | 0.727 | 32 nM | 108 nM | 1.01 | 
10 | O=C(CN1C(=O)CN(/N=C/c2ccc([N+](=O)[O-])o2)C1=O)c1ccccc1 |  | 226 nM | 76 nM | 73 nM | 277 nM | 0.824 | 1.2 |  | 2.98 | 19 nM |  | 3.08 | 
11 | Cc1ccc(-n2cc(CN3C(=O)CN(/N=C/c4ccc([N+](=O)[O-])o4)C3=O)nn2)cc1 | 3.92 | 232 nM | 145 nM | 113 nM | 283 nM | 0.824 | 1.2 |  | 1.6 | 27 nM | 59 nM | 2.05 | 
12 | O=C1CN(/N=C/c2ccc([N+](=O)[O-])o2)C(=O)N1Cc1cn(-c2ccc([N+](=O)[O-])cc2)nn1 | 1.62 | 183 nM | 117 nM | 140 nM | 63 nM | 2.92 | 1.2 | 1.2 | 1.56 | 26 nM | 113 nM | 1.32 | 
13 | O=C1CN(/N=C/c2ccc([N+](=O)[O-])o2)C(=O)N1Cc1ccc(Br)cc1 | 0.65 | 119 nM | 80 nM |  | 67 nM | 1.78 | 1.2 | 1.2 | 1.5 | 32 nM | 183 nM |  | 
14 | O=C1CN(/N=C/c2ccc([N+](=O)[O-])o2)C(=O)N1Cc1ccccc1 | 1.68 | 216 nM | 113 nM | 182 nM | 120 nM | 1.82 | 1.2 | 1.2 | 1.92 | 33 nM | 129 nM | 1.19 | 
